The target of data set [1] is T1, CYP76B1 (Helianthus tuberosus, UniProt O23976).
T1 sequence (O23976 1-490): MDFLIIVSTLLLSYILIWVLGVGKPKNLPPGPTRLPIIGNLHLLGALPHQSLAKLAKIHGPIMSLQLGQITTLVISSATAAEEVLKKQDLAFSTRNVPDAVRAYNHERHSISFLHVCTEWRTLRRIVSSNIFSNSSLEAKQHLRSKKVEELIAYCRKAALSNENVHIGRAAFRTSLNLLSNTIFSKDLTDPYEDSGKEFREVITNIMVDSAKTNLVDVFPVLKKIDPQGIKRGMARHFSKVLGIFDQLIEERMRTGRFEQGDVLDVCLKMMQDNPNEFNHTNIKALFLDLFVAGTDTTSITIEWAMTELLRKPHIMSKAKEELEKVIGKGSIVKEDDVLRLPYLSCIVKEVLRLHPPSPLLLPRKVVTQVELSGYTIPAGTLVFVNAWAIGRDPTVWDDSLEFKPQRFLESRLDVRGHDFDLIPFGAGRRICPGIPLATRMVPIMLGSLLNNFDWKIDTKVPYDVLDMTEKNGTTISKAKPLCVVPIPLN
Description: CYP76B1-dependent metabolism (O-/N-dealkylation) in microsomes of transformed yeast. As to conditions: for Activity: + NADPH; for turnover of the dealkylation: for phenylureas first dealkylation; for metabolite detection for endogenous molecules: transformed WAT11 yeast microsomes; for conversion / dealkylation by CYP76B1: transformed yeast microsomes, NADPH. How it is done:
BamHI and EcoRI sites were introduced by PCR just upstream of the ATG and downstream of the stop codon of the CYP76B1 coding sequence, using the primers 5′-[…] (sense) 5′-[…] (reverse) (SEQ ID NO 3 and SEQ ID NO 4 respectively). The PCR mixture was preheated for 2 min at 92° C. before addition of 1 unit of Pfu DNA polymerase (Stratagene). After 3 min additional heating at 92° C., 30 cycles of amplification were carried out as follows 1 min denaturation at 92° C., 1 min annealing at 52° C., 2 min extension at 72° C. The reaction was completed by 10 min extension at 72° C. After BamHI/EcoRI digestion, the 1470 bp coding sequence was inserted into the vector pYeDP60 (32). Transformation of Saccharomyces cerevisiae W(R), WAT11 and WAT21, and yeast growth were conducted according to Pompon et al. (32). Yeast microsomes were prepared as described in Pierrel et al. (33) with addition of 1% SAB, 2 mM β-mercaptoethanol, 10 mM sodium disulfite and 1 mM PMSF to the extraction buffer. When indicated, 0.5 mM δ-aminolevulinic acid methyl ester (Sigma) was added to the induction medium, or cells were stored at 4° C. for 24 h before preparation of the microsomes.
(§1) Spectrophotometric measurements of P450 content and substrate binding were performed as in (Gabriac et al., 1991) and SDS-PAGE was performed as in Gabriac et al. (34). Gels were stained with Coomassie Blue R-250. Alkoxycoumarins and alkoxyresorufins O-dealkylation was measured by fluorometry (Werck-Reichhart et al., 1990). The data are means ± S.D. of triplicates.
The conversion of other molecules was assayed by TLC or HPLC analysis of polar metabolites formed from radiolabeled compounds (Cabello-Hurtado et al., 1998a, b). NADPH-cytochrome c reductase was assayed according to (Benveniste et al., 1986). Kinetic data were fitted using the nonlinear regression program […] (Duggleby, 1984).
10 μL of non-immune serum or of serum raised against purified ECOD fraction were preincubated 2 min at room temperature with 10 μL of microsomes before addition of the reaction mix. n.d.: not detectable.
Conversion was estimated from the sum of the two polar metabolites detected after TLC analysis. Data are means + S.D. of two to four determinations. n.d.: not detected.
CYP76B1 concentrations in the MCOD, ECOD, MROD and EROD fluorometric assays were 1.5 nM or 2.1 nM, depending on the coexpressed ATR1 or yeast reductases. In the CTUDM assays, CYP76B1 concentrations were 1.7 nM (ATR1) and 8 nM (yeast), respectively. It was 12 nM for the determination of the catalytic parameters of monodemethyl-CTUDM, and 1.7 nM (ATR1) or 20 nM (yeast) in the IPUDM assays. Products were quantified by direct TLC analysis of 100 μL of the acidified incubation medium after 6 min incubation at 30° C. for the CTUDM and IPUDM assays, and after 9 min incubation for the monodemethyl-CTUDM.

For data set [2], the system named is 7-methoxyresorufin O-dealkylase activity. Description: Induction of 7-methoxyresorufin O-demethylase activity in tuber slices. Type of data set: cell-based, Helianthus tuberosus. Particulars: 48 hours of treatment. The protocol:
Slices of dormant tuber of Helianthus tuberosus were placed under survival conditions in oxygenated distilled water and stirred with a current of compressed air in the presence of various metals or organic compounds (effectors).
A control was performed with DMSO alone.

The target in data set [3] is T1, CYP76B1. Kind of data set: biochemical. Particulars: for ΔAmax × 10^−3: at saturating ligand concentration. The protocol: as §1
The binding of substrates into the catalytic site of a P450 usually induces a shift of its maximum of absorbance, redox potential and iron spin state (Raag and Poulos, 1989) resulting from the displacement of the water sixth ligand of the heme iron. It is easily detected by differential spectrophotometry as a so-called type I spectrum with a peak at 390 nm and a trough at 420 nm (Jefcoate, 1978). The variation of the differential absorbance ΔA390-420 versus substrate concentration allows the calculation of an apparent dissociation constant (Ks). A high ΔAmax induced by the ligand is usually an indication of correct positioning for catalysis.
CYP76B1 was 60 nM in the assays. Difference spectra were recorded after the addition of increasing concentrations of ligands to the sample cuvette. An equal volume of the herbicide solvent (DMSO) was added to the reference. Ks and ΔAmax at saturating ligand concentration were calculated from the double-reciprocal plots of ΔA(390-420 nm) versus substrate concentrations.

[4] abbreviates: coexpressed reductase ATR1 (WAT11).
Where [5] appears, read: coexpressed yeast reductase (W(R)).
The mark [6] stands for this setting: read-out: KS (apparent dissociation constant), CYP76B1 60 nM, ΔA(390-420 nm) double-reciprocal plots.

Where two headings read alike, the source gives them in different places.

In general, Km refers to the substrate concentration at which the rate is half of its maximum. On to `CCOc1ccc2nc3ccc(=O)cc-3oc2c1` [7-ethoxyresorufin], for which, at CYP76B1 [1] (W(R) strain), the Activity amounted to 5.1 pkat mg-1 protein and the “turnover of the dealkylation” value was 6 min⁻¹. Moreover, at CYP76B1 [1] (WAT11 strain), the Activity is 11.6 pkat mg-1 protein and the “turnover of the dealkylation” value was determined as 22 min⁻¹. Moreover, at CYP76B1 [1] (setting [4]), the Kcat was determined as 0.467 s⁻¹ and the Km was found to be 0.17 µM. With `CCCCC/C=C\C/C=C\CCCCCCCC(=O)O` [linoleic, linoleic acid], the “metabolite detection for endogenous molecules” value (“metabolite detection” for short) at CYP76B1 [1] is “No metabolite”. On the same count and under the same terms, in the case of `C=C(CC[C@@H](C)[C@H]1CC[C@@]2(C)C3=C(CC[C@]12C)[C@@]1(C)CC[C@H](O)[C@@H](C)[C@@H]1CC3)C(C)C` [obtusifoliol] it was “No metabolite”; in that of `CCCCCCCCCC(=O)O` [capric, capric acid], “No metabolite”; in that of `CCCCCCCCCCCCCCCC(=O)O` [palmitic, palmitic acid], “No metabolite”.

Take `CNC(=O)Nc1ccc(C)c(Cl)c1` [monodemethyl-chlortoluron]: at CYP76B1 [1] (setting [4]), the Kcat was found to be 0.767 s⁻¹ and the Km came out at 81 µM. On CYP76B1 [1], the “conversion / dealkylation by CYP76B1” value is “actively dealkylated”.

As to `COc1cc2oc(=O)ccc2cc1O` [isoscopoletin], the “metabolite detection” value on CYP76B1 [1] is “No metabolite”.

Regarding `COc1ccc2nc3ccc(=O)cc-3oc2c1` [7-methoxyresorufin], the Activity on CYP76B1 [1] (W(R) strain) came to 12.6 pkat mg-1 protein; at CYP76B1 [1] (WAT11 strain), 18.6 pkat mg-1 protein. In addition, the “turnover of the dealkylation” value on CYP76B1 [1] (W(R) strain) was 15 min⁻¹; at CYP76B1 [1] (WAT11 strain), 41 min⁻¹. Besides, the Kcat at CYP76B1 [1] (setting [4]) amounted to 0.683 s⁻¹; on CYP76B1 [1] (coexpressed reductase ATR2), 0.717 s⁻¹; at CYP76B1 [1] (setting [5]), 0.25 s⁻¹. The Km on CYP76B1 [1] (setting [4]) amounted to 0.17 µM; at CYP76B1 [1] (coexpressed reductase ATR2), 0.185 µM; at CYP76B1 [1] (setting [5]) it was 0.23 µM.

Regarding mercury, in data set [2], the “induction of 7-methoxyresorufin O-dealkylase activity” value (shortened to “induction”) is listed as “very strongly induced”.

For the molecule `CCCCCCCC/C=C\CCCCCCCC(=O)O` [oleic, oleic acid], on CYP76B1 [1], the “metabolite detection” value is “No metabolite”. Same read-out and setting: in the case of `CCCCCCCCCCCC(=O)O` [lauric, lauric acid] it was “No metabolite”. On to `Cl[C@H]1[C@H](Cl)[C@@H](Cl)[C@@H](Cl)[C@H](Cl)[C@H]1Cl` [lindane], for which the “induction” value in data set [2] was “very strongly induced”. As to `COc1cc(/C=C/C(=O)O)ccc1O` [ferulate, ferulic acid], the “metabolite detection” value on CYP76B1 [1] was “No metabolite”.

As for `COc1c2occc2cc2ccc(=O)oc12` [8-methoxypsoralen], the “induction” value in data set [2] is reported as “very strongly induced”. For `COc1cc2ccc(=O)oc2cc1O` [scopoletin], the “metabolite detection” value at CYP76B1 [1] is “No metabolite”. Regarding `O=C(O)c1ccccc1` [benzoate, Benzoic acid], the “metabolite detection” value at CYP76B1 [1] was “No metabolite”.

In the case of `c1ccc2c(c1)cc1ccc3cccc4ccc2c1c34` [benzo(a)pyrene], in data set [2], the “induction” value is on record as “very strongly induced”. In the case of `O=C1C[C@@H](c2ccc(O)cc2)Oc2cc(O)cc(O)c21` [naringenin], the “metabolite detection” value at CYP76B1 [1] was “No metabolite”.

In the case of `CC1=CC(=O)CC(C)(C)C1(O)/C=C/C(C)=C\C(=O)O` (stereo not shown) [abcisic acid], the “metabolite detection” value at CYP76B1 [1] was “No metabolite”. With `CON(C)C(=O)Nc1ccc(Br)c(Cl)c1` [Chlorbromuron], the “conversion / dealkylation by CYP76B1” value on CYP76B1 [1] was “dealkylates”. Besides, on CYP76B1 [3], the Kd is 5.3 µM. Further, on CYP76B1 [3] (CYP76B1 60 nM), the “ΔAmax × 10^−3” value was 6.7 × 10^−3. Turning to `CCCCCCCCCCCCCC(=O)O` [myristic, myristic acid], the “metabolite detection” value on CYP76B1 [1] is recorded as “No metabolite”. As to `COc1ccc2ccc(=O)oc2c1` [7-methoxycoumarin, 7-Methoxycoumarin], at CYP76B1 [1] (W(R) strain), the Activity came to 10.9 pkat mg-1 protein and the “turnover of the dealkylation” value came to 13 min⁻¹. Also, on CYP76B1 [1] (WAT11 strain), the Activity is recorded as 16.4 pkat mg-1 protein and the “turnover of the dealkylation” value was found to be 31 min⁻¹. In the case of `CC/C=C\C/C=C\C/C=C\CCCCCCCC(=O)O` [linolenic, linolenic acid], on CYP76B1 [1], the “metabolite detection” value is “No metabolite”.

For `O=C(O)/C=C/c1ccccc1` [cinnamate, trans-Cinnamic acid], the “metabolite detection” value at CYP76B1 [1] is recorded as “No metabolite”. Regarding `Cc1ccc2cc3c(ccc4ccccc43)c3c2c1CC3` [3-methylcholanthrene], in data set [2], the “induction” value is reported as “very strongly induced”. Turning to `CON(C)C(=O)Nc1ccc(Cl)cc1` [Monolinuron], on CYP76B1 [1], the “conversion / dealkylation by CYP76B1” value is given as “dealkylates”. Further, the Kd at CYP76B1 [3] stood at 4.8 µM.

`CON(C)C(=O)Nc1ccc(Br)cc1` [Metobromuron]: the Kd at CYP76B1 [3] (setting [6]) came to 6.2 µM.

As for `CCCCC(CC)COC(=O)c1ccccc1C(=O)OCC(CC)CCCC` (stereo not shown) [diethylhexylphthalate], the “induction” value in data set [2] is reported as “very strongly induced”. Regarding `O=C1OC(=O)c2cccc3cccc1c23` [naphthalic anhydride, 1,8-Naphthalic anhydride], the “induction” value in data set [2] is recorded as “very strongly induced”. As to Metoxuron, the “ΔAmax × 10^−3” value at CYP76B1 [3] (CYP76B1 60 nM) is reported as 6.1 × 10^−3. In addition, the Kd on CYP76B1 [3] (setting [6]) worked out at 117 µM. For the molecule `CC(C)c1ccc(NC(=O)N(C)C)cc1` [Isoproturon, N-(4-isopropylphenyl)-N′,N′-dimethylurea], the Activity stood at 128 pkat mg-1 protein at CYP76B1 [1] (W(R) strain) and 475 pkat mg-1 protein at CYP76B1 [1] (WAT11 strain). For the same molecule, the “turnover of the dealkylation” value came to 40 min⁻¹ on CYP76B1 [1] (W(R) strain) and 147 min⁻¹ on CYP76B1 [1] (WAT11 strain). In addition, the Kcat on CYP76B1 [1] (setting [4]) came to 2.45 s⁻¹; on CYP76B1 [1] (setting [5]) it was 0.667 s⁻¹. This molecule showed a Kd on CYP76B1 [3] of 55 µM. Further, the “ΔAmax × 10^−3” value at CYP76B1 [3] (CYP76B1 60 nM) is 8.2 × 10^−3.

(Values after US6376753B1, “PURIFIED CYTOCHROME P450 POLYPEPTIDE CYP76B1 FROM HELIANTHUS TUBEROSUS AND ITS APPLICATIONS AS BIOCATALYST IN PARTICULAR FOR THE DEGRADATION OF ENVIRONMENTAL POLLUTANTS AND FOR ALTERING THE RESISTANCE OF PLANTS SENSITIVE TO PHENYLUREA FAMILY OF HERBICIDES” (priority 1997, dated 2002).)
